Source: US8349844B2, “Substituted pyrazolo [1,5-A] pyrimidines as metabotropic glutamate antagonists” (Hoffmann-La Roche Inc., priority 2005, dated 2013)

Compound | melting point [°C]
Nc1ccc(-c2noc(-c3cnn4c(C(F)F)cc(-c5ccc(C(F)(F)F)c(F)c5)nc34)n2)cn1 [Example 74, 5-{5-[7-Difluoromethyl-5-(3-fluoro-4-trifluoromethyl-phenyl)-pyrazolo[1,5-a]pyrimidin-3-yl]-[1,2,4]oxadiazol-3-yl}-pyridin-2-ylamine] | 242
NS(=O)(=O)c1cccc(-c2noc(-c3cnn4c(C(F)(F)F)cc(-c5ccc(C(F)(F)F)cc5)nc34)n2)c1 [Example 2, 3-{5-[7-Trifluoromethyl-5-(4-trifluoromethyl-phenyl)-pyrazolo[1,5-a]pyrimidin-3-yl]-[1,2,4]oxadiazol-3-yl}-benzenesulfonamide] | 262
Nc1cc(-c2noc(-c3cnc4ccc(-c5ccc(C(F)(F)F)cc5)cn34)n2)ccn1 [Example 61, 4-{5-[6-(4-Trifluoromethyl-phenyl)-imidazo[1,2-a]pyridin-3-yl]-[1,2,4]oxadiazol-3-yl}-pyridin-2-ylamine] | 280
Cc1cc(-c2cc(C(F)(F)F)n3ncc(-c4nc(-c5ccc(N)nc5)no4)c3n2)ccc1C(F)(F)F [Example 37, 5-{5-[5-(3-Methyl-4-trifluoromethyl-phenyl)-7-trifluoromethyl-pyrazolo[1,5-a]pyrimidin-3-yl]-[1,2,4]oxadiazol-3-yl}-pyridin-2-ylamine] | 220
Nc1ncc(-c2noc(-c3cnn4c(C(F)(F)F)cc(-c5ccc(Cl)c(Cl)c5)nc34)n2)cn1 [Example 81, 5-{5-[5-(3,4-Dichloro-phenyl)-7-trifluoromethyl-pyrazolo[1,5-a]pyrimidin-3-yl]-[1,2,4]oxadiazol-3-yl}-pyrimidin-2-ylamine] | 300
CCOc1cc(-c2cc(C(F)F)n3ncc(-c4nc(-c5ccc(N)nc5)no4)c3n2)ccc1C(F)(F)F [Example 68, 5-{5-[7-Difluoromethyl-5-(3-ethoxy-4-trifluoromethyl-phenyl)-pyrazolo[1,5-a]pyrimidin-3-yl]-[1,2,4]oxadiazol-3-yl}-pyridin-2-ylamine] | 250
Cc1cc(-c2cc(C(F)F)n3ncc(-c4nc(-c5ccc(N)nc5)no4)c3n2)ccc1C(F)(F)F [Example 65, 5-{5-[7-Difluoromethyl-5-(3-methyl-4-trifluoromethyl-phenyl)-pyrazolo[1,5-a]pyrimidin-3-yl]-[1,2,4]oxadiazol-3-yl}-pyridin-2-ylamine] | 231
NS(=O)(=O)c1ccc(-c2noc(-c3cnn4c(C(F)(F)F)cc(-c5ccc(Cl)cc5)nc34)n2)cc1 [Example 12, 4-{5-[5-(4-Chloro-phenyl)-7-trifluoromethyl-pyrazolo[1,5-a]pyrimidin-3-yl]-[1,2,4]oxadiazol-3-yl}-benzenesulfonamide] | 296
Cc1cc(-c2ccc(Cl)cc2)nc2c(-c3nc(-c4cccc(S(N)(=O)=O)c4)no3)cnn12 [Example 38, 3-{5-[5-(4-Chloro-phenyl)-7-methyl-pyrazolo[1,5-a]pyrimidin-3-yl]-[1,2,4]oxadiazol-3-yl}-benzenesulfonamide] | 275
Nc1ccc(-c2noc(-c3cnn4c(C(F)(F)F)cc(-c5ccc(Cl)c(Cl)c5)nc34)n2)cn1 [Example 67, 5-{5-[5-(3,4-Dichloro-phenyl)-7-trifluoromethyl-pyrazolo[1,5-a]pyrimidin-3-yl]-[1,2,4]oxadiazol-3-yl}-pyridin-2-ylamine] | 289
Nc1ncc(-c2noc(-c3cnn4c(C(F)(F)F)cc(-c5ccc(C(F)(F)F)c(Cl)c5)nc34)n2)cn1 [Example 80, 5-{5-[5-(3-Chloro-4-trifluoromethyl-phenyl)-7-trifluoromethyl-pyrazolo[1,5-a]pyrimidin-3-yl]-[1,2,4]oxadiazol-3-yl}-pyrimidin-2-ylamine] | 279
NS(=O)(=O)c1ccc(-c2noc(-c3cnc4ccc(-c5ccc(C(F)(F)F)cc5)cn34)n2)s1 [Example 54, 5-{5-[6-(4-Trifluoromethyl-phenyl)-imidazo[1,2-a]pyridin-3-yl]-[1,2,4]oxadiazol-3-yl}-thiophene-2-sulfonic acid amide] | 280
Nc1ccc(-c2noc(-c3cnn4c(C(F)(F)F)cc(-c5ccc(F)c(F)c5)nc34)n2)cn1 [Example 76, 5-{5-[5-(3,4-Difluoro-phenyl)-7-trifluoromethyl-pyrazolo[1,5-a]pyrimidin-3-yl]-[1,2,4]oxadiazol-3-yl}-pyridin-2-ylamine] | 262
Cc1cc(-c2ccc(Cl)cc2)cn2c(-c3nc(-c4ccc(S(N)(=O)=O)cc4)no3)cnc12 [Example 39, 4-{5-[6-(4-Chloro-phenyl)-8-methyl-imidazo[1,2-a]pyridin-3-yl]-[1,2,4]oxadiazol-3-yl}-benzenesulfonamide] | 311
Cc1cc(-c2ccc(C(F)(F)F)cc2)cn2c(-c3nc(-c4ccc(S(N)(=O)=O)cc4)no3)cnc12 [Example 43, 4-{5-[8-Methyl-6-(4-trifluoromethyl-phenyl)-imidazo[1,2-a]pyridin-3-yl]-[1,2,4]oxadiazol-3-yl}-benzenesulfonamide] | 290
Cc1cc(-c2cc(C(F)(F)F)n3ncc(-c4nc(-c5ccc(N)nc5)no4)c3n2)ccc1Cl [Example 64, 5-{5-[5-(4-Chloro-3-methyl-phenyl)-7-trifluoromethyl-pyrazolo[1,5-a]pyrimidin-3-yl]-[1,2,4]oxadiazol-3-yl}-pyridin-2-ylamine] | 262
NS(=O)(=O)c1ccc(-c2noc(-c3cnc4c(C(F)(F)F)cc(-c5ccc(C(F)(F)F)cc5)cn34)n2)cc1 [Example 13, 4-{5-[8-Trifluoromethyl-6-(4-trifluoromethyl-phenyl)-imidazo[1,2-a]pyridin-3-yl]-[1,2,4]oxadiazol-3-yl}-benzenesulfonamide] | 292
NS(=O)(=O)c1ccc(-c2noc(-c3cnn4c(C(F)(F)F)cc(-c5cccc(C(F)(F)F)c5)nc34)n2)cc1 [Example 25, 4-{5-[7-Trifluoromethyl-5-(3-trifluoromethyl-phenyl)-pyrazolo[1,5-a]pyrimidin-3-yl]-[1,2,4]oxadiazol-3-yl}-benzenesulfonamide] | 300
Cc1cc(-c2ccc(Cl)cc2)nc2c(-c3nc(-c4ccc(S(N)(=O)=O)s4)no3)cnn12 [Example 32, 5-{5-[5-(4-Chloro-phenyl)-7-methyl-pyrazolo[1,5-a]pyrimidin-3-yl]-[1,2,4]oxadiazol-3-yl}-thiophene-2-sulfonic acid amide] | 253
Cc1cc(-c2cc(C(F)(F)F)n3ncc(-c4nc(-c5ccnc(N)c5)no4)c3n2)ccc1C(F)(F)F [Example 87, 4-{5-[5-(3-Methyl-4-trifluoromethyl-phenyl)-7-trifluoromethyl-pyrazolo[1,5-a]pyrimidin-3-yl]-[1,2,4]oxadiazol-3-yl}-pyridine-2-ylamine] | 245
Cc1cc(-c2cc(C(F)(F)F)n3ncc(-c4nc(-c5cnc(N)nc5)no4)c3n2)ccc1C(F)(F)F [Example 83, 5-{5-[5-(3-Methyl-4-trifluoromethyl-phenyl)-7-trifluoromethyl-pyrazolo[1,5-a]pyrimidin-3-yl]-[1,2,4]oxadiazol-3-yl}-pyrimidin-2-ylamine] | 272
Cc1cc(-c2ccc(C(F)(F)F)cc2)cn2c(-c3nc(-c4cccc(S(N)(=O)=O)c4)no3)cnc12 [Example 44, 3-{5-[8-Methyl-6-(4-trifluoromethyl-phenyl)-imidazo[1,2-a]pyridin-3-yl]-[1,2,4]oxadiazol-3-yl}-benzenesulfonamide] | 326
Nc1ccc(-c2noc(-c3cnn4c(C(F)(F)F)cc(-c5ccc(C(F)(F)F)c(Cl)c5)nc34)n2)cn1 [Example 73, 5-{5-[5-(3-Chloro-4-trifluoromethyl-phenyl)-7-trifluoromethyl-pyrazolo[1,5-a]pyrimidin-3-yl]-[1,2,4]oxadiazol-3-yl}-pyridin-2-ylamine] | 234
Nc1ccc(-c2noc(-c3cnn4c(C(F)(F)F)cc(-c5ccc(Cl)cc5)nc34)n2)cn1 [Example 62, 5-{5-[5-(4-Chloro-phenyl)-7-trifluoromethyl-pyrazolo[1,5-a]pyrimidin-3-yl]-[1,2,4]oxadiazol-3-yl}-pyridin-2-ylamine] | 253
NS(=O)(=O)c1cccc(-c2noc(-c3cnn4c(C(F)F)cc(-c5ccc(Cl)cc5)nc34)n2)c1 [Example 19, 3-{5-[5-(4-Chloro-phenyl)-7-difluoromethyl-pyrazolo[1,5-a]pyrimidin-3-yl]-[1,2,4]oxadiazol-3-yl}-benzenesulfonamide] | 231
Nc1ccc(-c2noc(-c3cnc4ccc(-c5ccc(Cl)cc5)cn34)n2)cn1 [Example 57, 5-{5-[6-(4-Chloro-phenyl)-imidazo[1,2-a]pyridin-3-yl]-[1,2,4]oxadiazol-3-yl}-pyridin-2-ylamine] | 273
NS(=O)(=O)c1cccc(-c2noc(-c3cnn4ccc(-c5ccc(Cl)cc5)nc34)n2)c1 [Example 49, 3-{5-[5-(4-Chloro-phenyl)-pyrazolo[1,5-a]pyrimidin-3-yl]-[1,2,4]oxadiazol-3-yl}-benzenesulfonamide] | 223
Nc1ccc(-c2noc(-c3cnn4c(C(F)(F)F)cc(-c5ccc(C(F)(F)F)cc5)nc34)n2)cn1 [Example 35, 5-{5-[7-Trifluoromethyl-5-(4-trifluoromethyl-phenyl)-pyrazolo[1,5-a]pyrimidin-3-yl]-[1,2,4]oxadiazol-3-yl}-pyridin-2-ylamine] | 257
Nc1ccc(-c2noc(-c3cnn4c(C(F)F)cc(-c5ccc(C(F)(F)F)c(Cl)c5)nc34)n2)cn1 [Example 72, 5-{5-[5-(3-Chloro-4-trifluoromethyl-phenyl)-7-difluoromethyl-pyrazolo[1,5-a]pyrimidin-3-yl]-[1,2,4]oxadiazol-3-yl}-pyridin-2-ylamine] | 252
NS(=O)(=O)c1ccc(-c2noc(-c3cnn4c(C(F)F)cc(-c5ccc(C(F)(F)F)cc5)nc34)n2)cc1 [Example 4, 4-{5-[7-Difluoromethyl-5-(4-trifluoromethyl-phenyl)-pyrazolo[1,5-a]pyrimidin-3-yl]-[1,2,4]oxadiazol-3-yl}-benzenesulfonamide] | 283
